Source: PMC7566095 (iScience, 2020)
Blank lines part the entries; values can stand above or below the sequence they belong to. Bridge positions count the residues as written; N and C are the ends. Ends that are not written are not given here.

Tests used:
Design in all cases: species or system HIV
[1] = test system: mAb 257D binding to SF162 gp120 protein; assay: Competition peptide ELISA, mAb 257D
[2] = test system: mAb 447-52D binding to SF162 gp120 protein; assay: Competition peptide ELISA, mAb 447-52D; details: for competition of peptide for binding of mAb 447-52D to gp120 protein: peptide 4-fold serial dilutions beginning at 20 ug/mL
[3] = test system: mAb 240D binding to MN gp41 protein; assay: Competition peptide ELISA, mAb 240D; details: peptide 4-fold serial dilutions beginning at 20 ug/mL
[4] = test system: mAb F240 binding to MN gp41 protein; assay: Competition peptide ELISA, mAb F240; details: peptide 4-fold serial dilutions beginning at 20 ug/mL
[5] = competition ELISA, SF162 gp120 coated
[6] = competition ELISA, SF162 gp120 coated, unpaired t test, three replicate experiments

- competition of peptide for binding of mAb 257D to gp120 protein ([1]; peptide 4-fold serial dilutions beginning at 20 ug/mL): competed for binding
- competition of peptide for binding of mAb 447-52D to gp120 protein [2]: competed for binding
Sequence: RKSIHIGPGRAFY [wild-type V3 peptide]

- competition of peptide for binding of mAb 447-52D to gp120 protein [2]: improved binding above wild-type levels
Sequence: RKSIHIGPGRATY [F317T]

- fold increase in IC50 versus wild-type V3 peptide, mAb 257D [1, 5]: 5 fold
- fold increase in IC50 versus wild-type V3 peptide, mAb 447-52D [2, 5]: 72 fold
Sequence: RKSIHIGPGWAFY [R315W]

Sequence: EKSIHIGPGRAFY [R304E]
- IC50 of peptide compared with wild-type V3 peptide, mAb 257D [1, 6]: did not yield IC50 values that were significantly different from the wild-type peptide

- competition of peptide for binding of mAb 240D to gp41 protein [3]: no longer competes for binding
- competition of peptide for binding of mAb F240 to gp41 protein [4]: no longer competes for binding
Sequence: LLGIWGDSGKLICTTNVP [C598D]

Sequence: RTSIHIGPGRAFY [K305T]
- IC50 of peptide compared with wild-type V3 peptide, mAb 447-52D [2, 6]: did not yield IC50 values that were significantly different from the wild-type peptide

- competition of peptide for binding of mAb 240D to gp41 protein [3]: competed for binding
- competition of peptide for binding of mAb F240 to gp41 protein [4]: competed for binding
Sequence: LLGIWGCSGKLICTTNVP (disulfide 7-13 (inferred)) [wild-type gp41 peptide]
